Results from patent EP4671247A1, “SUBSTITUTED PYRAZOLOPYRIMIDINE COMPOUND AND PHARMACEUTICAL USE THEREOF” (Japan Tobacco Inc., priority 2023, dated 2024).
pIC50: −log10 of the molar value. Read-outs that look alike come from different tables or passages of the source.

Biological target: T1, NLRP3 inflammasome (Homo sapiens, UniProt Q96P20)
T1 construct: host or cells: THP1-Null cells (PMA-differentiated, LPS-primed, nigericin-stimulated)
Test: Evaluation of NLRP3 inflammasome inhibitory activity (inhibition of IL-1β production in LPS/Nigericin-stimulated THP1-Null cells, AlphaLISA)
Assay type: cell-based
Conditions: for pIC50: PMA, 1 µg/mL Lipopolysaccharides 3 hours, Nigericin 7.5 µmol/L 1.5 hours
Procedure, shortened: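 THP1-Null cells were primed with 1 µg/mL LPS, then given test compound and stimulated with nigericin. IL-1β in the culture supernatant was quantified by AlphaLISA. Inhibition was calculated with blank wells set as 100% and control wells as 0%.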

[1] = IL-1β production in THP1-Null cells, read-out: IC50
[2] = IL-1β production in THP1-Null cells

T1 sequence (Q96P20 whole entry): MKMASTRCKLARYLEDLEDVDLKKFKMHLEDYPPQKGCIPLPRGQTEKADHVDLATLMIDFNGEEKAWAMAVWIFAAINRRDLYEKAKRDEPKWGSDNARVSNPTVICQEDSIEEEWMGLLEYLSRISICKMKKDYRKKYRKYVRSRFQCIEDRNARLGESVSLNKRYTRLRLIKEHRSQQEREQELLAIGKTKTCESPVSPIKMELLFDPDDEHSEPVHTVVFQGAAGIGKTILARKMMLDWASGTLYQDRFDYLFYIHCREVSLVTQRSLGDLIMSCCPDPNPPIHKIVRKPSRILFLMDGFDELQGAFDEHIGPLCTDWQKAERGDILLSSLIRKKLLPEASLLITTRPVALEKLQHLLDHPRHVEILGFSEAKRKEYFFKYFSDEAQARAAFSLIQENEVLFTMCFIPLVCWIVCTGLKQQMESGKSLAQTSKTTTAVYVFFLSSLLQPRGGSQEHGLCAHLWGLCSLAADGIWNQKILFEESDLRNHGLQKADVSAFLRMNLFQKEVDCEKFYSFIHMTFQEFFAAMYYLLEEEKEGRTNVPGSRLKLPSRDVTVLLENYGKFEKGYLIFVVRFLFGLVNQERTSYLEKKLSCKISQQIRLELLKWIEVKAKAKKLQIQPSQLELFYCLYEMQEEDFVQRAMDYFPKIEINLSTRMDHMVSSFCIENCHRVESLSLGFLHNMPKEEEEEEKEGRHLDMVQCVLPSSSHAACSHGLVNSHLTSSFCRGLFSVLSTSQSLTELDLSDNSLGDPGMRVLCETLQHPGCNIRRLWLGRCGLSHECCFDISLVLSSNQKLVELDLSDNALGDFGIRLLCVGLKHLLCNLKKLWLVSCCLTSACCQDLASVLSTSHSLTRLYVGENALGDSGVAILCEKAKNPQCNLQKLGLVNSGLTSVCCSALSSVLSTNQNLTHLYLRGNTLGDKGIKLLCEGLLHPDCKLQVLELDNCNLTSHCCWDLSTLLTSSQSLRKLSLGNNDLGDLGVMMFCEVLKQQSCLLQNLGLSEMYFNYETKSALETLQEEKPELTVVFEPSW

Row | Compound | pIC50 [1] | other results
1 | Cc1cc(Br)cc(C)c1-n1cc2c(=O)[nH]c(COCCC(C)(C)O)nc2n1 [Example 74] | 6.72 | –
2 | Cc1cc(C(C)(F)F)cc(C)c1-n1cc2c(=O)[nH]c(C3(F)CC3)nc2n1 [Example 162] | 7.24 | –
3 | Cc1cc(C2CC2)cc(C)c1-n1cc2c(=O)[nH]c(C3CCC3)nc2n1 [Example 22] | 7.92 | –
4 | Cc1ccc(-n2cc3c(=O)[nH]c(C(F)F)nc3n2)c(C)c1 [Example 10] | 4.89 | –
5 | Cc1cc(C2CC2)cc(C)c1-n1nc2nc(C3CC3)[nH]c(=O)c2c1CO [Example 83, 6-cyclopropyl-2-(4-cyclopropyl-2,6-dimethylphenyl)-3-(hydroxymethyl)-2,5-dihydro-4H-pyrazolo[3,4-d]pyrimidin-4-one] | 7.62 | –
6 | Cc1cc(Br)cc(C)c1-n1cc2c(=O)[nH]c(COC(F)F)nc2n1 [Example 132] | 7.62 | –
7 | Cc1cc(C2CC2)cc(C)c1-n1cc2c(=O)[nH]c(C3(F)CCOCC3)nc2n1 [Example 73] | 7.68 | –
8 | Cc1ccc(-n2cc3c(=O)n(CC(=O)N(C)C)c(C)nc3n2)c(C)c1 [Example 16] | – | inhibition at 2.4 µM (test compound at 2.4 µM, IL-1β production in THP1-Null cells): -14%
9 | Cc1cc(OC(F)F)cc(C)c1-n1cc2c(=O)[nH]c(C3(F)CC3)nc2n1 [Example 159] | 7.24 | –
10 | Cc1cc(C2CC2)cc(C)c1-n1nc2nc(C3CC3)[nH]c(=O)c2c1CF [Example 84] | 7.82 | –
11 | Cc1cc(Br)cc(C)c1-n1cc2c(=O)[nH]c(C34CCC(CO3)C4)nc2n1 (racemic) [Example 117] | 6.62 | –
12 | Cc1cc(C2CC2)cc(C)c1-n1cc2c(=O)[nH]c(C34CC(CO)(CO3)C4)nc2n1 [Example 95] | 7.38 | –
13 | Cc1cc(C2CC2)cc(C)c1-n1cc2c(=O)[nH]c(C3CCOCC3)nc2n1 [Example 42] | 8.40 | –
14 | Cc1cc(OC(F)F)cc(C)c1-n1cc2c(=O)[nH]c(CCO)nc2n1 [Example 209] | 7.60 | –
15 | Cc1cc(C2CC2)ccc1-n1cc2c(=O)[nH]c(C3CC3)nc2n1 [Example 24] | 7.33 | –
16 | Cc1cc(C2CC2)cc(C)c1-n1cc2c(=O)[nH]c(CCF)nc2n1 [Example 101] | 7.62 | –
17 | Cc1cc(C2CC2)cc(C)c1-n1cc2c(=O)[nH]c(C3(F)CCOC3)nc2n1 (single isomer, unassigned) [Example 79] | – | pIC50 [2]: 7.12
18 | Cc1nn(C2CCC2)c(C)c1-n1cc2c(=O)[nH]c(C3CC3)nc2n1 [Example 59] | 5.77 | –
19 | Cc1cc(C2CC2)cc(C)c1-n1cc2c(=O)[nH]c(C(O)C(F)F)nc2n1 (single isomer, unassigned) [Example 169] | – | pIC50 [2]: 7.59
20 | Cc1cc(OC(F)F)cc(C)c1-n1cc2c(=O)[nH]c(C3CC3F)nc2n1 (single isomer, unassigned) [Example 173] | – | pIC50 [2]: 7.82
21 | Cc1cc(C2CC2)cc(C)c1-n1cc2c(=O)[nH]c(C3CCOCCO3)nc2n1 (racemic) [Example 163, (RS)-2-(4-cyclopropyl-2,6-dimethylphenyl)-6-(1,4-dioxepan-5-yl)-2,5-dihydro-4H-pyrazolo[3,4-d]pyrimidin-4-one] | 7.64 | –
22 | CCc1nc2nn(-c3c(C)cc(OC(F)F)cc3C)cc2c(=O)[nH]1 [Example 180] | 7.70 | –
23 | Cc1cc(Br)cc(C)c1-n1cc2c(=O)[nH]c(C3CCOCCO3)nc2n1 (racemic) [Example 160] | 7.43 | –

Row | Compound | pIC50 [1] | other results
24 | CCc1nc2nn(-c3c(C)cc(C4CC4)cc3C)cc2c(=O)[nH]1 [Example 23] | 7.62 | –
25 | Cc1cc(OC(F)F)cc(C)c1-n1cc2c(=O)[nH]c([C@@H](C)O)nc2n1 (single isomer, unassigned) [Example 165] | 7.12 | –
26 | Cc1cc(C2CC2)cc(C)c1-n1cc2c(=O)[nH]c(C3CC(F)(F)CCO3)nc2n1 (racemic) [Example 197] | 7.44 | –
27 | Cc1cc(Br)cc(C)c1-n1cc2c(=O)[nH]c(Cn3cccn3)nc2n1 [Example 62] | 6.64 | –
28 | Cc1cc(C2CC2)cc(C)c1-n1cc2c(=O)[nH]c(C3CCOC3)nc2n1 (single isomer, unassigned) [Example 50] | – | pIC50 [2]: 8.30
29 | Cc1cc(C(C)(F)F)cc(C)c1-n1cc2c(=O)[nH]c(C3(F)COC3)nc2n1 [Example 116] | 6.55 | –
30 | Cc1cc(C2CC2)cc(C)c1-n1cc2c(=O)[nH]c(C(N)=O)nc2n1 [Example 203] | 6.54 | –
31 | Cc1cc(C2CC2)cc(C)c1-n1cc2c(=O)[nH]c(C3CC3CO)nc2n1 (racemic) [Example 124] | 8.10 | –
32 | Cc1cc(Br)cc(C)c1-n1cc2c(=O)[nH]c(C(C)O)nc2n1 (racemic) [Example 137] | 7.62 | –
33 | O=c1[nH]c(C2CC2)nc2nn(-c3cc4c(cc3Cl)OCCC4)cc12 [Example 211] | 7.57 | –
34 | Cc1cc(C2CC2)cc(C)c1-n1cc2c(=O)[nH]c(C3CCOCCO3)nc2n1 (single isomer, unassigned) [Example 178, 2-(4-cyclopropyl-2,6-dimethylphenyl)-6-(1,4-dioxepan-5-yl)-2,5-dihydro-4H-pyrazolo[3,4-d]pyrimidin-4-one] | 7.96 | –
35 | COCc1cc(OC(F)F)cc(C)c1-n1cc2c(=O)[nH]c(C3CC3)nc2n1 [Example 76] | 7.09 | –
36 | Cc1cc(C2CC2)cc(C)c1-n1cc2c(=O)[nH]c([C@@H]3C[C@H]3C#N)nc2n1 (racemic) [Example 152] | – | pIC50 (IC50, IL-1β production in THP1-Null cells): 7.92
37 | Cc1ccc(-n2cc3c(=O)[nH]c(C4CCCO4)nc3n2)c(C)c1 (racemic) [Example 31] | 6.10 | –
38 | Cc1cc(C(C)(F)F)cc(C)c1-n1cc2c(=O)[nH]c(C(C)O)nc2n1 (racemic) [Example 144, (RS)-2-{4-(1,1-difluoroethyl)-2,6-dimethylphenyl}-6-(1-hydroxyethyl)-2,5-dihydro-4H-pyrazolo[3,4-d]pyrimidin-4-one] | 7.24 | –
39 | COc1nc(C)nc2nn(-c3ccc(C)cc3C)cc12 [Example 12] | – | inhibition at 24 µM (test compound at 24 µM, IL-1β production in THP1-Null cells): 26%
40 | Cc1cc(C2CC2)cc(C)c1-n1cc2c(=O)[nH]c(C3CCOCCO3)nc2n1 (single isomer, unassigned) [Example 179, 2-(4-cyclopropyl-2,6-dimethylphenyl)-6-(1,4-dioxepan-5-yl)-2,5-dihydro-4H-pyrazolo[3,4-d]pyrimidin-4-one] | 7.29 | –
41 | Cc1ccc(-n2cc3c(=O)[nH]c(C4CCOCC4)nc3n2)c(C)c1 [Example 33] | 7.17 | –
42 | Cc1cc(C2CC2)cc(C)c1-n1cc2c(=O)[nH]c(C3COC3)nc2n1 [Example 39] | 7.80 | –
43 | COCc1nc2nn(-c3c(C)cc(Br)cc3C)cc2c(=O)[nH]1 [Example 27] | 7.54 | –
44 | Cc1cc(C(F)(F)F)cc(C)c1-n1cc2c(=O)[nH]c(C3CC3)nc2n1 [Example 55] | 7.51 | –
45 | Cc1ccc(-n2cc3c(=O)[nH]c(C4CCCOC4)nc3n2)c(C)c1 (racemic) [Example 34] | 6.70 | –
46 | Cc1cc(OC(F)F)cc(C)c1-n1cc2c(=O)[nH]c(C3=CCOCC3)nc2n1 [Example 135] | 7.48 | –
